SMILES strings stand for the structures.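 96-well plates; 48 h exposure; 5 concentrations. Endpoints by linear interpolation between flanking doses. Not reached: highest tested concentration assigned. TGI: total growth inhibition.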

Consider 35 compounds from PubChem BioAssay (NCI).

The first assay deals with IGROV1 ovarian. Kind of assay: inhibition of tumour cell growth, NCI panel, 48 h.
The compound `CC1(C)CCCC2OC2CCC(C)(C)C1=O` (stereo unspecified) registered a TGI of more than 100 µM.
Compound `O=C1NCC2(CCN(CCCC3(c4ccc(F)cc4)OCCO3)CC2)N1c1ccccc1` registered a TGI of more than 100 µM.
Regarding `COc1ccc2c(c1)/C(=C\c1c(Cl)nc3sc(C)cn13)C(=O)N2`, the TGI was 16.7 µM.
`O=C(/C=C/c1ccc2c(c1)OCO2)CC(=O)C(=O)c1c[nH]c2ccccc12` returned a TGI of more than 100 µM.
For the compound `O=C(Nc1nccs1)c1c(O)nc2sccn2c1=O`, the TGI is more than 10 µM.
Take `O=c1[nH]c(=O)n(C2OC(CO)C(O)C2O)c2nc(-c3ccc(-c4ccccc4)cc3)cnc12` (stereo unspecified): the TGI is more than 100 µM.
The same measure, in the same setting: as for `CC1=NN(c2cccc(Cl)c2)C2(SCC(=O)N2c2nc3ccccc3s2)/C1=C\c1ccccc1O` (stereo unspecified), the figure is 80.9 µM; as for `O=C1NCCN1/N=C/c1c(Cl)n(-c2ccccc2)c2ccccc12`, 41.7 µM.
With `CCCCCCOc1ccc(C(=O)NOC)cc1`, the TGI was more than 100 µM.
Same read-out and setting: for `Cc1c(S(=O)(=O)c2ccccc2)c(N)n(CCN(C)C)c1C` the value was more than 100 µM.
The same measure, in the same setting: for `N=C(N)SCc1ccc2c(c1)Sc1ccccc1O2` the value was 11.9 µM; for `CC1CCC(C(=O)O)(C(Br)C(=O)O)CC1` (stereo unspecified), more than 100 µM.
The compound `COc1cc(NS(C)(=O)=O)ccc1Nc1cc(C)[nH]c2ccc3nccc3c12` had a TGI of more than 100 µM.
Compound `CCCC(=O)OC1CC(n2cc(F)c(=O)[nH]c2=O)OC1COP(=O)(OCC(Cl)(Cl)Cl)OCC(Cl)(Cl)Cl` (stereo unspecified) gave a TGI of more than 31.6 µM.
`CCOC(=O)Cn1c(=O)c2nc(SC)sc2n(-c2ccccc2)c1=O` yielded a TGI of more than 100 µM.
Still for that read-out and setting: for `O=[N+]([O-])C(/C=C(\Cl)n1nnc2ccccc21)=C(/Cl)n1nnc2ccccc21` the value was more than 100 µM.
Regarding `CSC(=S)N(C)C`, the TGI was more than 100 µM.
On the same count and under the same terms, for `COc1ccc2c(C)cc(=O)oc2c1OC` the value was more than 100 µM.
Compound `CN(C)c1ccc(S(=O)Nc2ccccc2)cc1` (stereo unspecified) returned a TGI of more than 100 µM.
Consider `OCCc1ccsc1-c1sc(-c2cc(CCO)c(-c3sccc3CCO)s2)cc1CCO`, for which the TGI was 29.5 µM.
Regarding `O=c1[nH]c(Nc2nc3ccccc3[nH]2)nc(O)c1-c1ccccc1`, the TGI is more than 100 µM.
The compound `O=[N+]([O-])c1ccc(Oc2c(Cl)cc(S(=O)(=O)/N=C(\NO)Nc3ccc(Cl)cc3)cc2Cl)cc1` yielded a TGI of 29.8 µM.
In the case of `O=C(CC(C(=O)c1ccsc1)c1ccc2c(c1)OCO2)c1ccccc1` (stereo unspecified), the TGI was more than 100 µM.
Turning to `CCOC(=O)c1ccc(NCC#CCN2CCOCC2)cc1`, the TGI is more than 100 µM.
For the compound `CCN(CCCN(CC)C(=O)Nc1c(C)cccc1C)C(=O)Nc1c(C)cccc1C`, the TGI was more than 100 µM.
The compound `CSC(=S)N/N=C(\C)c1ccc(S(=O)(=O)N(C)c2ccccc2)cc1` yielded a TGI of more than 100 µM.
The compound `CCNC(=O)Cc1nc2c(N)ncnc2n1C1OC(CO)C(O)C1O` (stereo unspecified) gave a TGI of more than 100 µM.
Consider `COc1ccc(C2=N/C(=C\c3ccccc3)C(=O)O2)cc1`, for which the TGI was more than 100 µM.
The compound `CC1(C)C2CCC1(C)[C@H](n1c(=O)n([C@@H]3CC4CCC3(C)C4(C)C)c(=O)n([C@@H]3CC4CCC3(C)C4(C)C)c1=O)C2` had a TGI of more than 100 µM.
In turn, `Cc1ccc(S(=O)(=O)N/N=C/C2(c3ccccc3)c3ccccc3-c3ccccc32)cc1` came in with a TGI of 23.5 µM.
For the compound `Oc1ccc([I+]c2ccccc2)cc1O`, the TGI was more than 100 µM.
In turn, `N#CC12C(=O)N=C(N)C1(C#N)C(c1ccco1)NC1=C2CCCC1` (stereo unspecified) came in with a TGI of more than 100 µM.
`CC1=NN(c2cccc(Cl)c2)C2(C1=C/C=C/c1ccccc1)C(Cl)C(=O)N2c1nc2ccccc2s1` (stereo unspecified) gave a TGI of more than 100 µM.

For a further assay, the system named is OVCAR-3 ovarian. Kind of assay: inhibition of tumour cell growth, NCI panel, 48 h.
As for `CC1(C)CCCC2OC2CCC(C)(C)C1=O` (stereo unspecified), the TGI was more than 100 µM.
Consider `O=C1NCC2(CCN(CCCC3(c4ccc(F)cc4)OCCO3)CC2)N1c1ccccc1`, for which the TGI is more than 100 µM.
On the same count and under the same terms, as for `COc1ccc2c(c1)/C(=C\c1c(Cl)nc3sc(C)cn13)C(=O)N2`, the figure is 8.83 µM; as for `O=C1c2ccccc2-c2c1c(-c1ccc(F)cc1)nc1ccc3ccccc3c21`, more than 100 µM; as for `O=C(/C=C/c1ccc2c(c1)OCO2)CC(=O)C(=O)c1c[nH]c2ccccc12`, more than 100 µM.
Turning to `O=C(Nc1nccs1)c1c(O)nc2sccn2c1=O`, the TGI was more than 10 µM.
Still for that read-out and setting: as for `CC1=NN(c2cccc(Cl)c2)C2(SCC(=O)N2c2nc3ccccc3s2)/C1=C\c1ccccc1O` (stereo unspecified), the figure is 80.3 µM; as for `O=C1NCCN1/N=C/c1c(Cl)n(-c2ccccc2)c2ccccc12`, more than 100 µM; as for `CCCCCCOc1ccc(C(=O)NOC)cc1`, more than 100 µM.
Compound `Cc1c(S(=O)(=O)c2ccccc2)c(N)n(CCN(C)C)c1C` returned a TGI of more than 100 µM.
The same measure, in the same setting: as for `N=C(N)SCc1ccc2c(c1)Sc1ccccc1O2`, the figure is 16.9 µM.
`CC1CCC(C(=O)O)(C(Br)C(=O)O)CC1` (stereo unspecified) showed a TGI of more than 100 µM.
The same measure, in the same setting: as for `COc1cc(NS(C)(=O)=O)ccc1Nc1cc(C)[nH]c2ccc3nccc3c12`, the figure is more than 100 µM; as for `CCCC(=O)OC1CC(n2cc(F)c(=O)[nH]c2=O)OC1COP(=O)(OCC(Cl)(Cl)Cl)OCC(Cl)(Cl)Cl` (stereo unspecified), 38.8 µM.
For the compound `O=[N+]([O-])C(/C=C(\Cl)n1nnc2ccccc21)=C(/Cl)n1nnc2ccccc21`, the TGI is more than 100 µM.
As for `CS(=O)(=O)OCC(CCl)(CCl)CCl`, the TGI is more than 100 µM.
In the case of `CSC(=S)N(C)C`, the TGI was more than 100 µM.
In turn, `COc1ccc2c(C)cc(=O)oc2c1OC` showed a TGI of more than 100 µM.
Compound `CN(C)c1ccc(S(=O)Nc2ccccc2)cc1` (stereo unspecified) displayed a TGI of more than 100 µM.
In the case of `OCCc1ccsc1-c1sc(-c2cc(CCO)c(-c3sccc3CCO)s2)cc1CCO`, the TGI worked out at 32.5 µM.
Regarding `O=c1[nH]c(Nc2nc3ccccc3[nH]2)nc(O)c1-c1ccccc1`, the TGI is more than 100 µM.
With `O=[N+]([O-])c1ccc(Oc2c(Cl)cc(S(=O)(=O)/N=C(\NO)Nc3ccc(Cl)cc3)cc2Cl)cc1`, the TGI was 19.4 µM.
The same measure, in the same setting: for `O=C(CC(C(=O)c1ccsc1)c1ccc2c(c1)OCO2)c1ccccc1` (stereo unspecified) the value was more than 100 µM.
For the compound `CCOC(=O)c1ccc(NCC#CCN2CCOCC2)cc1`, the TGI was more than 100 µM.
Compound `CSC(=S)N/N=C(\C)c1ccc(S(=O)(=O)N(C)c2ccccc2)cc1` displayed a TGI of more than 100 µM.
Take `CCNC(=O)Cc1nc2c(N)ncnc2n1C1OC(CO)C(O)C1O` (stereo unspecified): the TGI was more than 100 µM.
`COc1ccc(C2=N/C(=C\c3ccccc3)C(=O)O2)cc1` showed a TGI of more than 100 µM.
As to `CC1(C)C2CCC1(C)[C@H](n1c(=O)n([C@@H]3CC4CCC3(C)C4(C)C)c(=O)n([C@@H]3CC4CCC3(C)C4(C)C)c1=O)C2`, the TGI was more than 100 µM.
